According to patent publication US9637496B2, “Substituted 7-azabicycles and their use as orexin receptor modulators” (priority 2013, dated 2017):
Where two headings read alike, the source gives them in different places.

Key:
human orexin 1 receptor = human orexin 1 receptor (Homo sapiens (Human), UniProt O43613); assay: Human orexin 1 receptor radioligand binding (competitive binding, CHO membranes); details: read-out: hOX1 Ki
human orexin 2 receptor = human orexin 2 receptor (Homo sapiens (Human), UniProt O43614); assay: Human orexin 2 receptor radioligand binding ([3H]-EMPA competition, HEK293 membranes); details: human orexin 2 receptor; Table 2, averages from between 2-20 runs; read-out: hOX2 Ki
rat orexin 1 receptor = rat orexin 1 receptor (Rattus norvegicus (Rat), UniProt P56718); assay: Rat orexin 1 receptor radioligand binding (competitive binding, HEK293 membranes); details: read-out: rOX1 Ki
[1] = rat orexin 1 receptor, Table 2, averages from between 2-20 runs
[2] = human orexin 1 receptor, Table 2, averages from between 2-20 runs

Chain of human orexin 2 receptor (O43614 whole entry): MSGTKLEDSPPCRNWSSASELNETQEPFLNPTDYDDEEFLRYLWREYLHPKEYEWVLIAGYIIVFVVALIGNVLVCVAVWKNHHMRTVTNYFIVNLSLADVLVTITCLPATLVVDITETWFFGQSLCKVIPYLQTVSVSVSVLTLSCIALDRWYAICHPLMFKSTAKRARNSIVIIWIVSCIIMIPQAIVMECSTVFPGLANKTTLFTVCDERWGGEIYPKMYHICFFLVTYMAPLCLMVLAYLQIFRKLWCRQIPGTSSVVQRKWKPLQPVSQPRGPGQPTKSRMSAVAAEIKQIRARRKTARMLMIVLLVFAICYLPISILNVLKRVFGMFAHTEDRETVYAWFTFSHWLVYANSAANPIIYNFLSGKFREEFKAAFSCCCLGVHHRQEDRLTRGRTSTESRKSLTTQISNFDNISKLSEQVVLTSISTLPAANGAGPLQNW
Chain of human orexin 1 receptor (O43613 whole entry): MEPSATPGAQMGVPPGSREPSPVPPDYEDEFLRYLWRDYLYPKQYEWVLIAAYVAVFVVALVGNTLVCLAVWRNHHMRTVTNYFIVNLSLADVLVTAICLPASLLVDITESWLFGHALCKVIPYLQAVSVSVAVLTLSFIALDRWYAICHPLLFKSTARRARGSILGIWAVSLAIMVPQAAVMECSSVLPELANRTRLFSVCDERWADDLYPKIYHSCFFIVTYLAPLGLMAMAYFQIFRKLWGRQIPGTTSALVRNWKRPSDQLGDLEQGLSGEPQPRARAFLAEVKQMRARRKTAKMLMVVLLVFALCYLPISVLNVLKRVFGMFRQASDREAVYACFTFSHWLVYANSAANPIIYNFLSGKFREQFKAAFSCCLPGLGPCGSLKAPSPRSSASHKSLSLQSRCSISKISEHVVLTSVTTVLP
Chain of rat orexin 1 receptor (P56718 whole entry): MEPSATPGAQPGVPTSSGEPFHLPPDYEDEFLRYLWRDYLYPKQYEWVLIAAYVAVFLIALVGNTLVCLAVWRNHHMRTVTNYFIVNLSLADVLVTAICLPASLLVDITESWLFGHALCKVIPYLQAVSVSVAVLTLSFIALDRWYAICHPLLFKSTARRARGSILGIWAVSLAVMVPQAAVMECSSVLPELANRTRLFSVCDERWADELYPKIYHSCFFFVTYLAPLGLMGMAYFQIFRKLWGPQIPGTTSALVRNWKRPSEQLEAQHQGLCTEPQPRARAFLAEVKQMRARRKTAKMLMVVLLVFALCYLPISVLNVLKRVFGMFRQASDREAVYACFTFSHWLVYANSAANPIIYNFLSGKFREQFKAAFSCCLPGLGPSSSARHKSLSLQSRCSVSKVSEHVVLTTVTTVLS

| Compound | Ki (human orexin 1 receptor) [nM] | Ki (human orexin 2 receptor) [nM] | Ki (rat orexin 1 receptor; [1]) [nM] | Ki (human orexin 1 receptor; [2]) [nM] | Ki (rat orexin 1 receptor) [nM] |
| --- | --- | --- | --- | --- | --- |
| Cc1cccc(C(=O)N2[C@@H]3CC[C@H]2[C@H](Nc2ncc(Br)cn2)C3)c1-c1ncccn1 [Example 316, ((1S,2R,4R)-2-((5-bromopyrimidin-2-yl)amino)-7-azabicyclo[2.2.1]heptan-7-yl)(3-methyl-2-(pyrimidin-2-yl)phenyl)methanone] | 59 | 796 | 20 | – | – |
| O=C(c1cccc(F)c1-n1nccn1)N1[C@@H]2CC[C@H]1[C@H](Nc1ncc(Br)cn1)C2 [Example 317, ((1S,2R,4R)-2-((5-bromopyrimidin-2-yl)amino)-7-azabicyclo[2.2.1]heptan-7-yl)(3-fluoro-2-(2H-1,2,3-triazol-2-yl)phenyl)methanone] | – | 1600 | 31 | 70 | – |
| Cc1cccc(C(=O)N2[C@@H]3CC[C@H]2[C@H](Nc2ncc(Br)cn2)C3)c1-n1nccn1 [Example 318, ((1S,2R,4R)-2-((5-bromopyrimidin-2-yl)amino)-7-azabicyclo[2.2.1]heptan-7-yl)(3-methyl-2-(2H-1,2,3-triazol-2-yl)phenyl)methanone] | 13 | 768 | – | – | 9 |
| O=C(c1cccc(F)c1-c1ccccn1)N1[C@@H]2CC[C@H]1[C@H](Nc1ccc(C(F)(F)F)cn1)C2 [Example 320, (3-fluoro-2-(pyridin-2-yl)phenyl)((1S,2R,4R)-2-((5-(trifluoromethyl)pyridin-2-yl)amino)-7-azabicyclo[2.2.1]heptan-7-yl)methanone] | 14 | 260 | – | – | 37 |
| O=C(c1ccc(F)cc1-n1nccn1)N1[C@@H]2CC[C@H]1[C@H](Nc1ccc(C(F)(F)F)cn1)C2 [Example 368, (4-fluoro-2-(2H-1,2,3-triazol-2-yl)phenyl)((1S,2R,4R)-2-((5-(trifluoromethyl)pyridin-2-yl)amino)-7-azabicyclo[2.2.1]heptan-7-yl)methanone] | – | 2600 | 78 | 71 | – |
| O=C(c1cc(F)ccc1-n1nccn1)N1[C@@H]2CC[C@H]1[C@H](Nc1ccc(C(F)(F)F)cn1)C2 [Example 369, (5-fluoro-2-(2H-1,2,3-triazol-2-yl)phenyl)((1S,2R,4R)-2-((5-(trifluoromethyl)pyridin-2-yl)amino)-7-azabicyclo[2.2.1]heptan-7-yl)methanone] | – | 629 | 67 | 45 | – |
| O=C(c1c(F)cccc1-n1nccn1)N1[C@@H]2CC[C@H]1[C@H](Nc1ccc(C(F)(F)F)cn1)C2 [Example 370, (2-fluoro-6-(2H-1,2,3-triazol-2-yl)phenyl)((1S,2R,4R)-2-((5-(trifluoromethyl)pyridin-2-yl)amino)-7-azabicyclo[2.2.1]heptan-7-yl)methanone] | – | 508 | 104 | 142 | – |
| O=C(c1cc(F)ccc1-c1ncccn1)N1[C@@H]2CC[C@H]1[C@H](Nc1ccc(C(F)(F)F)cn1)C2 [Example 371, (5-fluoro-2-(pyrimidin-2-yl)phenyl)((1S,2R,4R)-2-((5-(trifluoromethyl)pyridin-2-yl)amino)-7-azabicyclo[2.2.1]heptan-7-yl)methanone] | – | 615 | 42 | 27 | – |
| O=C(c1c(F)cccc1-c1ncccn1)N1[C@@H]2CC[C@H]1[C@H](Nc1ccc(C(F)(F)F)cn1)C2 [Example 372, (2-fluoro-6-(pyrimidin-2-yl)phenyl)((1S,2R,4R)-2-((5-(trifluoromethyl)pyridin-2-yl)amino)-7-azabicyclo[2.2.1]heptan-7-yl)methanone] | 13 | 420 | – | – | 19 |
| O=C(c1ccccc1-c1ncccn1)N1[C@@H]2CC[C@H]1[C@H](Nc1ccc(C(F)(F)F)cn1)C2 [Example 373, (2-(pyrimidin-2-yl)phenyl)((1S,2R,4R)-2-((5-(trifluoromethyl)pyridin-2-yl)amino)-7-azabicyclo[2.2.1]heptan-7-yl)methanone] | 36 | 679 | – | – | 34 |
| O=C(c1ccccc1-c1ncc(F)cn1)N1[C@@H]2CC[C@H]1[C@H](Nc1ccc(C(F)(F)F)cn1)C2 [Example 374, (2-(5-fluoropyrimidin-2-yl)phenyl)((1S,2R,4R)-2-((5-(trifluoromethyl)pyridin-2-yl)amino)-7-azabicyclo[2.2.1]heptan-7-yl)methanone] | 31 | 921 | – | – | 41 |
| O=C(c1cccc(F)c1-c1ncc(F)cn1)N1[C@@H]2CC[C@H]1[C@H](Nc1ccc(C(F)(F)F)cn1)C2 [Example 375, (3-fluoro-2-(5-fluoropyrimidin-2-yl)phenyl)((1S,2R,4R)-2-((5-(trifluoromethyl)pyridin-2-yl)amino)-7-azabicyclo[2.2.1]heptan-7-yl)methanone] | 89 | 2200 | – | – | 49 |
| O=C(c1cccc(Cl)c1-c1ncccn1)N1[C@@H]2CC[C@H]1[C@H](Nc1ccc(C(F)(F)F)cn1)C2 [Example 376, (3-chloro-2-(pyrimidin-2-yl)phenyl)((1S,2R,4R)-2-((5-(trifluoromethyl)pyridin-2-yl)amino)-7-azabicyclo[2.2.1]heptan-7-yl)methanone] | 4 | 110 | – | – | 10 |
| CN(c1ccc(C(F)(F)F)cn1)[C@@H]1C[C@H]2CC[C@@H]1N2C(=O)c1cccc(F)c1-c1ncccn1 [Example 377, (3-fluoro-2-(pyrimidin-2-yl)phenyl)((1S,2R,4R)-2-(methyl(5-(trifluoromethyl)pyridin-2-yl)amino)-7-azabicyclo[2.2.1]heptan-7-yl)methanone] | – | 9000 | 224 | 141 | – |
| Cc1cnc(C(=O)N2[C@@H]3CC[C@H]2[C@H](Nc2ccc(C(F)(F)F)cn2)C3)c(-c2ncccn2)c1 [Example 380, (5-methyl-3-(pyrimidin-2-yl)pyridin-2-yl)((1S,2R,4R)-2-((5-(trifluoromethyl)pyridin-2-yl)amino)-7-azabicyclo[2.2.1]heptan-7-yl)methanone] | 48 | 8500 | – | – | 28 |
| O=C(c1ncccc1-c1ncccn1)N1[C@@H]2CC[C@H]1[C@H](Nc1ccc(C(F)(F)F)cn1)C2 [Example 381, (3-(pyrimidin-2-yl)pyridin-2-yl)((1S,2R,4R)-2-((5-(trifluoromethyl)pyridin-2-yl)amino)-7-azabicyclo[2.2.1]heptan-7-yl)methanone] | 25 | 790 | – | – | 25 |
| O=C(c1cccc(F)c1-c1ncccn1)N1[C@@H]2CC[C@H]1[C@H](Nc1ncc(C(F)(F)F)cc1F)C2 [Example 382, (3-fluoro-2-(pyrimidin-2-yl)phenyl)((1S,2R,4R)-2-((3-fluoro-5-(trifluoromethyl)pyridin-2-yl)amino)-7-azabicyclo[2.2.1]heptan-7-yl)methanone] | – | 1100 | 18 | 15 | – |
| O=C(c1cccc(F)c1-n1nccn1)N1[C@@H]2CC[C@H]1[C@H](Nc1ncc(C(F)(F)F)cc1Cl)C2 [Example 383, ((1S,2R,4R)-2-((3-chloro-5-(trifluoromethyl)pyridin-2-yl)amino)-7-azabicyclo[2.2.1]heptan-7-yl)(3-fluoro-2-(2H-1,2,3-triazol-2-yl)phenyl)methanone] | – | 767 | 33 | 16 | – |
| O=C(c1cccc(F)c1-c1ncccn1)N1[C@@H]2CC[C@H]1[C@H](Nc1ncc(C(F)(F)F)cc1Cl)C2 [Example 384, ((1S,2R,4R)-2-((3-chloro-5-(trifluoromethyl)pyridin-2-yl)amino)-7-azabicyclo[2.2.1]heptan-7-yl)(3-fluoro-2-(pyrimidin-2-yl)phenyl)methanone] | – | 612 | 15 | 12 | – |
| O=C(c1ccccc1-c1ncc(F)cn1)N1[C@@H]2CC[C@H]1[C@H](Nc1ncc(C(F)(F)F)cc1Cl)C2 [Example 385, ((1S,2R,4R)-2-((3-chloro-5-(trifluoromethyl)pyridin-2-yl)amino)-7-azabicyclo[2.2.1]heptan-7-yl)(2-(5-fluoropyrimidin-2-yl)phenyl)methanone] | 44 | 696 | – | – | 37 |
| O=C(c1ccccc1-c1ncccn1)N1[C@@H]2CC[C@H]1[C@H](Nc1ncc(C(F)(F)F)cc1Cl)C2 [Example 386, ((1S,2R,4R)-2-((3-chloro-5-(trifluoromethyl)pyridin-2-yl)amino)-7-azabicyclo[2.2.1]heptan-7-yl)(2-(pyrimidin-2-yl)phenyl)methanone] | – | 499 | 20 | 29 | – |
| O=C(c1ncccc1-c1ncccn1)N1[C@@H]2CC[C@H]1[C@H](Nc1ncc(C(F)(F)F)cc1Cl)C2 [Example 387, ((1S,2R,4R)-2-((3-chloro-5-(trifluoromethyl)pyridin-2-yl)amino)-7-azabicyclo[2.2.1]heptan-7-yl)(3-(pyrimidin-2-yl)pyridin-2-yl)methanone] | – | 1100 | 40 | 33 | – |
| O=C(c1cccc(F)c1-n1nccn1)N1[C@@H]2CC[C@H]1[C@H](Nc1ccc(C(F)F)cn1)C2 [Example 388, ((1S,2R,4R)-2-((5-(difluoromethyl)pyridin-2-yl)amino)-7-azabicyclo[2.2.1]heptan-7-yl)(3-fluoro-2-(2H-1,2,3-triazol-2-yl)phenyl)methanone] | – | 1100 | 130 | 118 | – |
| O=C(c1cccc(F)c1-c1ncccn1)N1[C@@H]2CC[C@H]1[C@H](Nc1ccc(C(F)F)cn1)C2 [Example 389, ((1S,2R,4R)-2-((5-(difluoromethyl)pyridin-2-yl)amino)-7-azabicyclo[2.2.1]heptan-7-yl)(3-fluoro-2-(pyrimidin-2-yl)phenyl)methanone] | – | 741 | 123 | 168 | – |
